Reference: paper PMC5571359, “Screening the Medicines for Malaria Venture Pathogen Box across Multiple Pathogens Reclassifies Starting Points for Open-Source Drug Discovery” (Antimicrobial Agents and Chemotherapy, 2017)

tested on: P. falciparum ABS; assay: not given; details: P. falciparum 3D7; ref PBox supporting information; read-out: Pf 3D7 Pbox IC50; cited from earlier work

Row | SMILES | IC50
1 | CC1(C)Cc2c(c(N3CCOCC3)nc3snc(Br)c23)CO1 [MMV687794] | 0.29 µM

tested on: HepG2; assay: not given; details: HepG2; ref PBox supporting information; cited from earlier work

Row | SMILES | HepG2 PBox CC20
2 | CNCCC(Oc1ccc(C(F)(F)F)cc1)c1ccccc1 (stereo not shown) [MMV001561] | 9.0 µM
3 | CC(C)C(Oc1cccc2ccccc12)C(=O)O (stereo not shown) [MMV676191] | >80 µM
4 | Nc1ncnc2c1c(Cc1cccc3ccccc13)nn2CC1CCNCC1 [MMV676182] | >80 µM
5 | COc1cc(NC(=O)Cc2nn(C)c(=O)c3ccccc23)ccc1Cl [MMV676053] | >80 µM
6 | CC(C)(C)n1nc(Cc2cccc3ccccc23)c2c(N)ncnc21 [MMV676599] | 19 µM

same assay, conditions: HepG2 CC20; ref Pathogen Box supporting information; cited from earlier work

Row | SMILES | HepG2 PBox CC20 μMc
7 | O=C(Nc1nnc(S)s1)c1cc(Br)ccc1Cl [MMV676492] | >80 µM

same assay, conditions: cited from earlier work

Row | SMILES | CC50 | HepG2 PBox CC20 μMc
8 | Cc1nn(Cc2ccccc2)c(Cl)c1C(=O)NC1CCCCCC1 [MMV063404] | > 100 µM | 
9 | COC(=O)C1=C(C)NC(C)=C(C(=O)OC(C)C)C1c1cccc2nonc12 (stereo not shown) [MMV001493] |  | 66 µM
10 | CC1(C)OB(O)c2ccc(C3=NOC(c4cc(Cl)c(F)c(Cl)c4)(C(F)(F)F)C3)cc21 (stereo not shown) [MMV687775] |  | 15.4 µM
11 | Cc1cc(O)nc(-n2nc(C)cc2C)n1 [MMV393995] | 60.7 µM | 

same assay, conditions: read-out: HepG2 PBox CC50 µM; HepG2 cytotoxicity; ref PBox supporting information; cited from earlier work

Row | SMILES | CC50
12 | O=C(NCc1cc(Cl)cc(Cl)c1)c1c(C(F)(F)F)nc2ccccn12 [MMV687699] | 38.3 µM
13 | Cc1cc(OCC(=O)NCc2ccccc2)c2cc(Br)ccc2n1 [MMV687747] | 31 µM
14 | COc1ccc(-c2nc(-c3cccc(NC(=O)Cc4ccc(F)cc4)c3)no2)cc1OC [MMV676571] | > 100 µM
15 | COc1ccc2nc(C)cc(OCC(=O)NCc3ccccc3)c2c1 [MMV687189] | > 100 µM
16 | CC(C)n1ncc2c(C(=O)NCC(c3cccs3)N3CCOCC3)cc(-c3ccccc3)nc21 (stereo not shown) [MMV676406] | 58 µM
17 | Cc1cccc(Cn2ccc(NC(=O)c3ccc4c(c3)OCO4)n2)c1 [MMV676386] | > 100 µM
18 | FC(F)(F)c1nnc2ccc(Cl)nn12 [MMV069458] | > 100 µM
19 | Cc1cc(Cl)ccc1NC(=O)CCc1ccc(S(=O)(=O)NCC(C)C)cc1 [MMV161996] | > 100 µM
20 | O=C(NC1CCCCC1)N1CCN(Cc2ccc3c(c2)OCO3)CC1 [MMV676444] | > 100 µM
21 | Nc1cccnc1Nc1ccc(Cl)cc1 [MMV676524] | 9 µM
22 | CCCn1c(CNc2ccccc2O)nc2ccccc21 [MMV676445] | 84.1 µM
23 | CCc1c(C)nc(-n2nc(C)cc2NC(=O)c2ccccc2SC)[nH]c1=O [MMV676477] | 1.3 µM
24 | Nc1c2c(nc3sc4c(c13)CCCC4)CCCC2 [MMV676588] | 34.9 µM
25 | Cc1ccc(NC(=O)CC2COc3ccccc3O2)cc1Cl (stereo not shown) [MMV676431] | 66.7 µM
26 | CCCCOC(=O)Nc1cc2nc(C3CCCCC3)[nH]c2cc1N1CCCC1 [MMV687730] | 26.8 µM
27 | CCCc1ccc(S(=O)(=O)Nc2ccc(CN3CCN(CC4CC4)CC3)cc2)cc1 [MMV688125] | 17.7 µM
28 | CCc1nc2ccccc2n1CC(O)COc1cc(C)ccc1Cl (stereo not shown) [MMV676449] | 43.2 µM
29 | CCC(C)NC(=O)c1ccc(NC(=O)C2(c3ccccc3)CCCC2)cc1 (stereo not shown) [MMV146306] | > 100 µM
30 | COc1ccc(Nc2ccccc2NC(=O)c2ccc(O)nc2)cc1 [MMV676554] | 42.5 µM
31 | O=C(CCC1CCCCC1)Nc1cccc(-c2nnc(-c3ccco3)o2)c1 [MMV676589] | > 100 µM
32 | CCc1ccc(S(=O)(=O)Nc2cc(CN3CCN(CCC(C)C)CC3)ccc2C)cc1 [MMV688124] | 27.4 µM
33 | CCOc1ccc(OCC(=O)Nc2cc(C)cc(C)c2)cc1 [MMV676470] | > 100 µM
34 | Cc1nc2ccccn2c1C(=O)NCc1ccc(Cl)cc1 [MMV012074] | > 100 µM
35 | COc1ccc(-c2cc(NC(=O)c3ccc(F)cc3Cl)ccc2OC)cc1 [MMV676526] | > 100 µM
36 | O=C(C1CCN(c2nnc(-n3cccc3)s2)CC1)N1CCC(Cc2ccccc2)CC1 [MMV676478] | > 100 µM
37 | COc1cc(C(F)(F)F)nc2ccc(C)c(N)c12 [MMV047015] | > 100 µM

Row | SMILES | CC50
38 | COc1ccc2nc(C)cc(OCC(=O)Nc3ccccc3OC)c2c1 [MMV687188] | 57.4 µM
39 | Cc1cc(C)c2cc(C(=O)NC3CCCCCCC3)[nH]c2c1 [MMV687146] | > 100 µM
40 | CC1COC2(CCN(c3nc(=O)c4cc(C(F)(F)F)cc([N+](=O)[O-])c4s3)CC2)O1 (stereo not shown) [MMV676603] | > 100 µM
41 | CCCCc1ccc(C(=O)Nc2nccc3ccccc23)nc1 [MMV687254] | 73.8 µM
42 | O=C(Nc1nnc(-c2ccc(Cl)cc2)o1)c1cccc(C(F)(F)F)c1 [MMV102872] | 9 µM
43 | COc1cccc(OCC(=O)c2ccc(Br)cc2)c1 [MMV676379] | > 100 µM
44 | CCC(Sc1nc2ccccc2o1)C(=O)Nc1nnc(C)s1 (stereo not shown) [MMV611037] | > 100 µM
45 | CCOC(=O)c1cc(-c2csc(Nc3c(C)cc(C)cc3C)n2)on1 [MMV676461] | 24.4 µM
46 | CC(=O)NCC1CN(c2ccc(-c3ccc(CNCc4cn[nH]n4)cc3)c(F)c2)C(=O)O1 (stereo not shown) [MMV688327] | > 100 µM
47 | Nc1ncnc2c1ncn2[C@@H]1O[C@H](COS(=O)(=O)NC(=O)c2ccccc2O)[C@@H](O)[C@H]1O [MMV687700] | > 100 µM
48 | NC(=O)c1cc(Br)ccc1OCCOc1ccccc1 [MMV687243] | > 100 µM
49 | CC1=NN(c2nc3ccccc3s2)C(=O)C1Cc1cccc2ccccc12 (stereo not shown) [MMV676558] | 21.9 µM
50 | COc1ccc(OC(C)C(=O)Nc2ccc(Cl)cc2C)cc1 (stereo not shown) [MMV202458] | > 100 µM
51 | O=C(C1CCN(c2cc(-n3cccc3)ncn2)CC1)N1CCc2ccccc2C1 [MMV687172] | > 100 µM
52 | NC(=O)c1cc(-c2ccsc2)ccc1OCCOc1ccccc1 [MMV687138] | > 100 µM
53 | CCc1ccc([C@@H]2C[C@H](C(F)(F)F)n3ncc(C(=O)NCc4ccc(OC)cc4)c3N2)cc1 [MMV687180] | 50.6 µM
54 | COc1ccc(C2(C(=O)Nc3ccc(Br)cc3)CCCC2)cc1 [MMV200748] | > 100 µM
55 | CC1(COc2ccc(N3CCC(Oc4ccc(OC(F)(F)F)cc4)CC3)cc2)Cn2cc([N+](=O)[O-])nc2O1 (stereo not shown) [MMV688262] | 72.5 µM
56 | N#Cc1ccc(-c2ccc(OCC(N)=O)cc2)cc1 [MMV053220] | > 100 µM
57 | O=C(Nc1nnc(-c2ccc(Cl)s2)o1)c1ccc(Cl)s1 [MMV676501] | 50.1 µM
58 | O=C(c1[nH]nc2c1CCCC2)N1CCN(Cc2ccc3c(c2)OCO3)CC1 [MMV676389] | > 100 µM
59 | O=C(NCCc1c[nH]c2ccccc12)c1cc2ccccc2oc1=O [MMV676539] | > 100 µM
60 | Brc1c(-c2ccc3c(c2)OCO3)nc2ncccn12 [MMV676377] | > 100 µM
61 | Cc1cc(C)cc(COc2ccc3c(C)c(CCC(=O)O)c(=O)oc3c2C)c1 [MMV676476] | > 100 µM
62 | COC(=O)c1c(NC(=O)c2c(F)c(F)c(F)c(F)c2F)sc2c1CCCCC2 [MMV461553] | 7.5 µM

same assay, conditions: read-out: HepG2 PBox CC50; HepG2; ref PBox supporting information; cited from earlier work

Row | SMILES | CC50
63 | CNc1snc(C)c1C(=O)NCCOc1ccc(OC)cc1 [MMV688554] | > 100 µM
64 | O=C1[C@@H](Oc2ccccc2)[C@@H](c2ccc(Cl)cc2)N1CCn1cnc2c(NCc3ccccc3)ncnc21 [MMV688352] | 3 µM
65 | NCC(c1cccs1)S(=O)(=O)c1ccccc1 (stereo not shown) [MMV688557] | 35.4 µM
66 | OC[C@H]1O[C@@H](n2c3ccc(Cl)cc3c3c(-c4cc5ccccc5o4)ncnc32)C(O)[C@H]1O (stereo partly shown) [MMV688921] | 10 µM
67 | COC(=O)c1ccc(F)cc1NS(=O)(=O)c1cccc(-c2cnn(Cc3ccccc3)c2)c1 [MMV688350] | 10 µM
68 | CC(C)(C)C(=O)N(CCCCCCN1C[C@H](O)[C@@H](O)[C@H](O)[C@H]1CO)C1CCCCCC1 [MMV688543] | > 50 µM
69 | Cn1ccnc1CNCCS(=O)(=O)c1cccc(Nc2ccc(-c3cccc(F)c3)cn2)c1 [MMV688466] | 46.1 µM
70 | O=C(NCc1ccoc1)N1CCN(Cc2ccc3c(c2)OCO3)CC1 [MMV688553] | > 100 µM
71 | CC(C)(C)OC(=O)N1CCN(c2nccc(-c3ccc(-c4ccc(Cl)cc4)s3)n2)CC1 [MMV688416] | > 50 µM

same assay, conditions: ref Pbox supporting information; cited from earlier work

Row | SMILES | HepG2 PBox CC20 μMc
72 | CC(C)(C)c1ccc(N[C@@H]2CCCC[C@H]2NC(=O)c2ccco2)cc1 [MMV675969] | 35.9 µM
73 | Cc1nn(C(=O)Nc2cccc(C(F)(F)F)c2)c(C)c1Sc1ncccn1 [MMV688552] | 30.7 µM
74 | Nc1ncc(-c2ccc(C(F)(F)F)nc2)cc1-c1ccc(C(F)(F)F)nc1 [MMV668727] | >80 µM
75 | Oc1c(I)cc(I)c2cccnc12 [MMV002817] | 2.5 µM
76 | CC(=O)N(CCN(C(=O)c1ccc(F)cc1)c1ccccc1)c1ccccc1 [MMV676064] | 39 µM
77 | CCc1nc2ccc(C(=O)NCc3ccc4c(c3)OCO4)cn2c1N(C)Cc1cccs1 [MMV407539] | 18.6 µM
78 | Cc1ccccc1C(=O)N1N=C(Nc2ccccc2)SC1(C)C [MMV688771] | 8 µM
79 | COC(=O)c1c(NC(=O)c2cc3ccccc3oc2=O)sc2c1CCN(Cc1ccccc1)C2 [MMV676480] | 12.3 µM
80 | COc1ccc(N(CCc2cccc(C)n2)C(=O)C2CCCCC2)cc1 [MMV675996] | >80 µM
81 | c1ccc(Oc2ccc(-c3cncc(-c4ccc5[nH]ccc5c4)n3)cc2)cc1 [MMV688178] | 25.7 µM
82 | COc1ccc(-c2cnc3cnc(-c4cccc(OC(C)C)c4)cn23)cc1 [MMV688270] | 24.3 µM
83 | O=C(c1ccc(F)cc1)N(CCNc1ccccc1)c1ccccc1 [MMV676204] | 18.5 µM
84 | Cc1cc(OCC(=O)Nc2ccc(C(C)C)cc2)n(C)c(=O)c1C#N [MMV1198433] | >80 µM
85 | CCCCc1ccc(NC(=O)Nc2ccc(O[C@H]3CCCC[C@@H]3N(C)c3ccccc3)c(F)c2)cc1 [MMV676063] | 5.8 µM
86 | Cn1ncc2c(N3CCOCC3)nc(NCCc3c[nH]c4ccccc34)nc21 [MMV676382] | 4.6 µM
87 | COc1ccc(N(CCc2cccc(C)n2)C(C)=O)cc1 [MMV675995] | >80 µM

tested on: HEK293 cells; assay: HEK293 resazurin cell cytotoxicity assay; details: Homo sapiens, HEK293, read-out: HEK % Inhibition 20uM/IC50 Discovery Biology (IA)

Row | SMILES | IC50
88 | CC1(C)Cc2c(c(N3CCOCC3)nc3snc(Br)c23)CO1 [MMV687794] | > 20 µM
